Non-standard residues stand in square brackets, D forms with d. Residues, ends and D or L forms follow the SMILES beside them. Hyp = O=C(O)[C@@H]1C[C@@H](O)CN1; Cit = NC(=O)NCCC[C@H](N)C(=O)O; NMeD = CN[C@@H](CC(=O)O)C(=O)O; NMeL = CN[C@@H](CC(C)C)C(=O)O; Abu = CC[C@H](N)C(=O)O; βAla = NCCC(=O)O; Sar = CNCC(=O)O Where only a bound is given, the exact number is not on record here.
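Note: amino acid uptake through Gap1 in nitrogen-starved wild-type yeast cells, measured after 60 s and expressed relative to L-citrulline.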

In the assay the target is T1, General amino-acid permease GAP1 (Saccharomyces cerevisiae) (UniProt P19145).
T1 sequence (whole entry): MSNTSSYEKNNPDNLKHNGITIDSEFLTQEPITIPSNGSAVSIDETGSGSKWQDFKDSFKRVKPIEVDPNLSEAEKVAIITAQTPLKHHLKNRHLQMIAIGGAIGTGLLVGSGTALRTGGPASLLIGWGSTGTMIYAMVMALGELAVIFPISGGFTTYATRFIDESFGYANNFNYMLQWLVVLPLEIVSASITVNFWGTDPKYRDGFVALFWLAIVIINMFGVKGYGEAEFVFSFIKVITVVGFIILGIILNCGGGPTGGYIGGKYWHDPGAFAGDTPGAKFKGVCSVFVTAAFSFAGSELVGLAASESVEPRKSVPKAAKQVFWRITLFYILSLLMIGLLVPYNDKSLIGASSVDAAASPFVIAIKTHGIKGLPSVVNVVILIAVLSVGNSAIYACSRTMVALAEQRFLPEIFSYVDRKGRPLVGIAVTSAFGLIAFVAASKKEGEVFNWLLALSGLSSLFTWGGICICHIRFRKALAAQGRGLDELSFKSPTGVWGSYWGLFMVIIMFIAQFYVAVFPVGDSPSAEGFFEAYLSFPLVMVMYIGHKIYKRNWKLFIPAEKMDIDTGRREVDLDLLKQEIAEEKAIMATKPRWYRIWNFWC
The following applies: sigma1278b, at 5 mM.
Description: Inhibition of nitrogen-starved wild type sigma1278b yeast Gap1-mediated amino acid uptake at 5 mM after 60 secs relative to L-citrulline
In the case of `CSCC[C@H](NC(=O)CN)C(=O)N[C@@H](CC(C)C)C(=O)O` (H-Gly-Met-Leu-OH), the inhibition was less than 15%.
As for `C[C@H](N)C(=O)N[C@@H](CO)C(=O)O` (H-Ala-Ser-OH), the figure is greater than 30%.
Next, `CC(C)C[C@H](N)C(=O)N1C[C@H](O)C[C@H]1C(=O)O` (H-Leu-[Hyp]-OH): less than 15%; `NCC(=O)NCC(=O)N[C@@H](Cc1ccccc1)C(=O)O` (H-Gly-Gly-Phe-OH): less than 15%; `NCC(=O)NCC(=O)N[C@@H](CC(=O)O)C(=O)O` (H-Gly-Gly-Asp-OH): less than 15%.
As for `CC(C)C[C@H](NC(=O)CNC(=O)[C@@H](N)CC(C)C)C(=O)O` (H-Leu-Gly-Leu-OH), the figure is less than 15%.
With `N[C@@H](Cc1ccc(O)cc1)C(=O)NCC(=O)O`, the inhibition was less than 15%.
For the compound `CC[C@H](N)C(=O)N[C@@H](CC(C)C)C(=O)O` (H-[Abu]-Leu-OH), the inhibition is less than 15%.
As for `CSCC[C@H](NC(=O)[C@@H](N)CCSC)C(=O)N[C@@H](C)C(=O)O` (H-Met-Met-Ala-OH), the figure is less than 15%; as for `CC(C)(C)OC(=O)N[C@@H](CCCCN)C(=O)O`, less than 15%.
`CN[C@@H](CC(=O)O)C(=O)N[C@@H](Cc1ccccc1)C(N)=O` (H-[NMeD]-Phe-NH2) displayed an inhibition of less than 15%.
The compound `N[C@@H](CCC(=O)O)C(=O)N[C@@H](Cc1c[nH]c2ccccc12)C(=O)N[C@@H](CCC(=O)O)C(=O)O` (H-Glu-Trp-Glu-OH) yielded an inhibition of less than 15%.
In turn, `N[C@@H](CO)C(=O)NCC(=O)NCC(=O)O` (H-Ser-Gly-Gly-OH) returned an inhibition of less than 15%.
Next, `COC(=O)[C@H](N)Cc1cnc[nH]1`: less than 15%; `CC(C)C[C@H](NC(=O)[C@H](CC(C)C)NC(=O)[C@@H](N)C(C)C)C(=O)O` (H-Val-Leu-Leu-OH): less than 15%.
Next, `C[C@@H](O)[C@H](N)C(=O)N[C@@H](CCCCN)C(=O)N[C@@H](Cc1ccc(O)cc1)C(=O)O` (H-Thr-Lys-Tyr-OH): less than 15%; `NCCCC(=O)N[C@@H](Cc1cnc[nH]1)C(=O)O`: less than 15%.
As for `CC[C@H](C)[C@H](N)C(=O)N[C@@H](CC(C)C)C(=O)N[C@@H](CC(C)C)C(=O)O` (H-Ile-Leu-Leu-OH), the figure is greater than 30%; as for `CSCC[C@H](NC(=O)[C@H](C)N)C(=O)O` (H-Ala-Met-OH), greater than 30%.
`N[C@@H](CO)C(=O)NCC(=O)O` (H-Ser-Gly-OH) had an inhibition of less than 15%.
`CC(C)C[C@H](N)C(=O)N[C@@H](Cc1ccc(O)cc1)C(=O)O` showed an inhibition greater than 30%.
As to `CC(C)C[C@H](NC(=O)CN)C(=O)N1C[C@H](O)C[C@H]1C(=O)O` (H-Gly-Leu-[Hyp]-OH), the inhibition was less than 15%.
Compound `CSCC[C@H](NC(=O)CN)C(=O)O` gave an inhibition of less than 15%.
As for `O=C(O)[C@@H]1C=CCN1`, the figure is less than 15%; as for `CC(C)C[C@H](NC(=O)[C@@H](N)CC(C)C)C(=O)N[C@H](C(=O)O)C(C)C` (H-Leu-Leu-Val-OH), less than 15%.
Next, `COC(=O)[C@@H](N)C(C)C`: less than 15%; `CC(C)C[C@H](NC(=O)[C@H](Cc1cnc[nH]1)NC(=O)CN)C(N)=O` (H-Gly-His-Leu-NH2): less than 15%.
Take `CCOC(=O)[C@@H](N)Cc1c[nH]c2ccccc12`: the inhibition is less than 15%.
Next, `COC(=O)[C@@H]1C=CCN1`: less than 15%.
On to `CSCC[C@H](N)C(=O)N[C@@H](Cc1cnc[nH]1)C(=O)O` (H-Met-His-OH), for which the inhibition is less than 15%.
`C[C@H](N)C(=O)N[C@@H](Cc1cnc[nH]1)C(=O)O` (H-Ala-His-OH) returned an inhibition greater than 30%.
The compound `CC(C)(C)OC(=O)N[C@@H](Cc1cnc[nH]1)C(=O)O` came in with an inhibition of less than 15%.
In turn, `N[C@@H](Cc1ccco1)C(=O)O` came in with an inhibition greater than 30%.
The compound `CC(=O)NC(Cc1ccc(Br)cc1)C(=O)O` (racemic) showed an inhibition of 15%.
With `CC(=O)N[C@@H](Cc1c[nH]c2ccccc12)C(=O)O`, the inhibition was less than 15%.
For `CC(C)C[C@H](N)C(=O)N[C@@H](CC(N)=O)C(=O)O` (H-Leu-Asn-OH), the inhibition is less than 15%.
As for `CC(C)[C@@H](NC(=O)OC(C)(C)C)C(=O)O`, the figure is less than 15%; as for `CN(CC(=O)O)C(=O)CNC(=O)CN` (H-Gly-Gly-[Sar]-OH), less than 15%; as for `CC(C)[C@H](N)C(=O)N[C@H](C(=O)N[C@@H](C(=O)O)C(C)C)C(C)C` (H-Val-Val-[dV]-OH), less than 15%.
For the compound `CN(CC(=O)O)C(=O)CN` (H-Gly-[Sar]-OH), the inhibition was less than 15%.
Next, `O=C(O)C[C@H](NC(=O)OCc1ccccc1)C(=O)O`: less than 15%; `CC(C)C[C@@H](N)CO`: less than 15%; `NCC[C@H]1CC[C@H](C(=O)O)CC1`: less than 15%.
As to `N[C@@H](Cc1cnc[nH]1)C(=O)N[C@@H](Cc1ccccc1)C(=O)O` (H-His-Phe-OH), the inhibition was less than 15%.
Next, `NCC(=O)N[C@@H](CC(N)=O)C(=O)O` (H-Gly-Asn-OH): less than 15%; `CC[C@H](C)[C@H](NC(=O)CN)C(=O)NCC(=O)O` (H-Gly-Ile-Gly-OH): less than 15%; `NCC(=O)NCC(=O)NCCC(=O)O` (H-Gly-Gly-[βAla]-OH): less than 15%.
Compound `CCOC(=O)[C@@H](N)CCSC` had an inhibition of less than 15%.
Compound `CCC[C@H](N)C(=O)OC` yielded an inhibition of less than 15%.
As for `CC[C@H](C)[C@H](NC(=O)CNC(=O)CN)C(=O)O` (H-Gly-Gly-Ile-OH), the figure is less than 15%; as for `NC(=O)[C@@H](N)Cc1c[nH]c2ccccc12`, less than 15%.
Next, `CC(C)C[C@H](NC(=O)CNC(=O)c1ccccc1)C(N)=O`: less than 15%.
Next, `NCC(=O)NCC(=O)N[C@@H](Cc1ccc(O)cc1)C(=O)O` (H-Gly-Gly-Tyr-OH): less than 15%; `CC(C)C[C@H](NC(=O)[C@@H](N)CC(C)C)C(=O)N[C@@H](CC(=O)O)C(=O)O` (H-Leu-Leu-Asp-OH): greater than 30%.
`CSCC[C@H](NC(=O)[C@@H](N)[C@@H](C)O)C(=O)O` (H-Thr-Met-OH): the inhibition was less than 15%.
On to `CSCC[C@H](NC(=O)[C@@H](N)Cc1ccc(O)cc1)C(=O)NCC(=O)O` (H-Tyr-Met-Gly-OH), for which the inhibition is less than 15%.
Next, `CC(C)(C)OC(=O)[C@@H](N)Cc1ccccc1`: less than 15%; `C[C@H](N)C(=O)N[C@@H](CC(N)=O)C(=O)O` (H-Ala-Asn-OH): greater than 30%; `C[C@@H](O)[C@H](NC(=O)OC(C)(C)C)C(=O)O`: less than 15%.
As for `O=C(O)[C@@H]1CCCN1C(=O)[C@@H]1C[C@@H](O)CN1C(=O)[C@@H]1CCCN1` (H-Pro-[Hyp]-Pro-OH), the figure is less than 15%; as for `NCC(=O)N[C@@H](CCC(=O)O)C(=O)O` (H-Gly-Glu-OH), less than 15%.
`COC(=O)[C@H](Cc1ccccc1)NC(=O)C[C@H](N)C(=O)O` yielded an inhibition greater than 30%.
As for `CN[C@@H](CC(C)C)C(=O)NCC(=O)O` (H-[NMeL]-Gly-OH), the figure is less than 15%; as for `NC(=O)[C@H](Cc1ccccc1)NC(=O)[C@@H](N)CC(=O)O` (H-Asp-Phe-NH2), less than 15%; as for `CC(C)C[C@H](NC(=O)[C@@H](N)CC(C)C)C(=O)N1CCC[C@H]1C(=O)O` (H-Leu-Leu-Pro-OH), less than 15%.
As for `C[C@H](N)C(=O)N[C@H](CCC(=O)O)C(N)=O` (H-Ala-[dE]-NH2), the inhibition is less than 15%.
As for `CC(C)C[C@H](NC(=O)CNC(=O)CN)C(=O)O`, the figure is less than 15%; as for `CC(C)[C@H](N)C(=O)NCC(=O)O` (H-Val-Gly-OH), less than 15%; as for `NC(=O)CC[C@H](NC(=O)[C@@H]1CCCN1)C(=O)O` (H-Pro-Gln-OH), less than 15%.
Turning to `CC(C)[C@H](NC(=O)[C@@H](N)CCCNC(N)=O)C(=O)O` (H-[Cit]-Val-OH), the inhibition was less than 15%.
Next, `CCCC(NC(=O)CN)C(=O)O` (racemic): 15%; `NCC(=O)NCC(=O)N[C@@H](CCC(=O)O)C(=O)O` (H-Gly-Gly-Glu-OH): less than 15%; `CC(C)[C@H](NC(=O)[C@@H](N)Cc1ccccc1)C(=O)O` (H-Phe-Val-OH): less than 15%.
As for `NCC(=O)NCC(N)=O`, the figure is less than 15%; as for `N[C@@H](Cc1c[nH]cn1)C(=O)NCC(=O)O` (H-His-Gly-OH), less than 15%.
As for `CC(=O)N1CCC[C@H]1C(=O)N[C@@H](Cc1ccccc1)C(=O)N[C@@H](CCCNC(=N)N)C(=O)O` (Ac-Pro-Phe-Arg-OH), the figure is less than 15%; as for `CCOC(=O)[C@@H](N)Cc1ccccc1`, less than 15%.
For the compound `CC[C@H](C)[C@H](N)C(=O)N[C@@H](CC(C)C)C(=O)O` (H-Ile-Leu-OH), the inhibition is greater than 30%.
`CC(C)(C)OC(=O)N[C@@H](CO)C(=O)O` had an inhibition of less than 15%.
As for `CC(C)C[C@@H](NC(=O)OC(C)(C)C)C(=O)O`, the figure is less than 15%; as for `CC(C)C[C@@H](N)C(=O)N[C@@H](CC(C)C)C(=O)O`, less than 15%.
`CC[C@H](C)[C@H](N)C(=O)N[C@@H](CO)C(=O)O` (H-Ile-Ser-OH) gave an inhibition of less than 15%.

The record behind these values is ChEMBL document CHEMBL1221220, “Transport and signaling via the amino acid binding site of the yeast Gap1 amino acid transceptor” (Nat Chem Biol, 2009).
